How the values were obtained:
[1] = tested on: bovine microtubule-associated protein (MAP)-rich tubulin; type: biochemical; conditions: 0.3 uM
Protocol: Tubulin Polymerization Assays. For in vitro tubulin polymerization assays, bovine microtubule-associated protein (MAP)-rich tubulin, PEM buffer [80 mM Na-PIPES (pH 6.9), 1 mM MgCl2, and 1 mM EGTA], and GTP are purchased from Cytoskeleton (Denver, Colo.). MAP-rich tubulin (final concentration 1.5 mg/ml) is dissolved in cold PEM buffer containing 1 mM GTP (GPEM) and centrifuged at 12,000×g for 10 min at 4° C. The tubulin solution (100 μl/well) is added rapidly to wells of a low-volume, 96-well plate already containing duplicate aliquots (10 μl) of test compounds in GPEM. […] Control wells contained the same final concentration of DMSO (0.3%). After initiation of the reaction, absorbance at 340 nm is measured every minute for 60 min at 24° C. using a SpectraMax Plus plate reader (Molecular Devices, Sunnyvale, Calif.).

[2] = tested on: KB cells; assay: cells; type: cell-based; conditions: 3 days, SRB
Protocol: (§1) Cell Survival Assay: Standard Pharmacological Test Procedure. […] Compounds are incubated with cells for 3 days.

[3] = tested on: KB85; assay: cells; type: cell-based; conditions: 3 days, SRB
Protocol: as §1

[4] = tested on: KBV1; assay: cells; type: cell-based; conditions: for IC50: 3 days, SRB; for inhibition at 3 µM: KB-V1, 3000 nM
Protocol: as §1

| SMILES | Tubulin Polym. % inhibition at 0.3 uM [1] | IC50 ([2]; Homo sapiens, KB, 72 h) | IC50 ([3]; 72 h) | IC50 ([4]; Homo sapiens, KB-V1, 72 h) | IC50 [2] | IC50 [3] | IC50 [4] | inhibition at 3 µM ([4]; Homo sapiens) |
| --- | --- | --- | --- | --- | --- | --- | --- | --- |
| CN[C@H](C(=O)N[C@H](C(=O)N(C)[C@H](/C=C(\C)C(=O)N1CCN(Cc2ccccc2)CC1)C(C)C)C(C)(C)C)C(C)(C)c1ccc(C)c(C)c1 [Example 12, N,β,β,3,4-Pentamethyl-L-phenylalanyl-N^1-[(1S,2E)-4-(4-benzylpiperazin-1-yl)-1-isopropyl-3-methyl-4-oxobut-2-enyl]-N^1,3-dimethyl-L-valinamide] | 51% | 48 nM | 65 nM | 1330 nM | – | – | – | – |
| CN[C@@H](C(=O)N[C@H](C(=O)N(C)[C@H](/C=C(\C)C(=O)N1CCN(Cc2ccccc2)CC1)C(C)C)C(C)(C)C)C(C)(C)c1ccc(C)c(C)c1 [Example 13, N,β,β,3,4-Pentamethyl-D-phenylalanyl-N^1-[(1S,2E)-4-(4-benzylpiperazin-1-yl)-1-isopropyl-3-methyl-4-oxobut-2-enyl]-N^1,3-dimethyl-L-valinamide] | 11% | 172 nM | 352 nM | 1770 nM | – | – | – | – |
| CN[C@H](C(=O)N[C@H](C(=O)N(C)[C@H](/C=C(\C)C(=O)N1CCN(Cc2ccccc2)CC1)C(C)C)C(C)(C)C)C(C)(C)c1cc(C)cc(C)c1 [Example 14, N,β,β,3,5-Pentamethyl-L-phenylalanyl-N^1-[(1S,2E)-4-(4-benzylpiperazin-1-yl)-1-isopropyl-3-methyl-4-oxobut-2-enyl]-N^1,3-dimethyl-L-valinamide] | 51(5) % | 45 nM | 135 nM | 1650 nM | – | – | – | – |
| C/C(=C\[C@H](C(C)C)N(C)C(=O)[C@@H](NC(=O)[C@@H](N(C)C)C(C)(C)c1ccccc1)C(C)(C)C)C(=O)N1CCN(Cc2ccccc2)CC1 [Example 15, N,β,β,β-Tetramethyl-L-phenylalanyl-N^1[(1S,2E)-4-(4-benzylpiperazin-1-yl)-1-isopropyl-3-methyl-4-oxobut-2-enyl]-N^1,3-dimethyl-L-valinamide] | 77% | – | – | – | 7.2 nM | 18 nM | 354 nM | – |
| CN[C@H](C(=O)N[C@H](C(=O)N(C)[C@H](/C=C(\C)C(=O)N1CCN(Cc2ccccc2)CC1)C(C)C)C(C)(C)C)C(C)(C)c1cccc(Cl)c1 [Example 16, 3-Chloro-N,β,β-trimethyl-L-phenylalanyl-N^1-[(1S,2E)-4-(4-benzylpiperazin-1-yl)-1-isopropyl-3-methyl-4-oxobut-2-enyl]-N^1,3-dimethyl-L-valinamide] | 62% | 39 nM | 60 nM | 803 nM | – | – | – | – |
| CN[C@H](C(=O)N[C@H](C(=O)N(C)[C@H](/C=C(\C)C(=O)N1CCC[C@H]1C(=O)OC)C(C)C)C(C)(C)C)C(C)(C)c1ccc(C)c(C)c1 [Example 17, N,β,β,3,4-Pentamethyl-L-phenylalanyl-N^1-{(1S,2E)-4-[(2S)-2-(methoxycarbonyl)pyrrolidin-1-yl]-1-isopropyl-3-methyl-4-oxobut-2-enyl}-N^1,3-dimethyl-L-valinamide] | 71% | 1.9 nM | 15 nM | 363 nM | – | – | – | – |
| CN[C@H](C(=O)N[C@H](C(=O)N(C)[C@H](/C=C(\C)C(=O)N1CCC[C@H]1C(=O)O)C(C)C)C(C)(C)C)C(C)(C)c1ccc(C)c(C)c1 [Example 18, N,β,β,3,4-Pentamethyl-L-phenylalanyl-N^1-{(1S,2E)-4-[(2S)-2-carboxypyrrolidin-1-yl]-1-isopropyl-3-methyl-4-oxobut-2-enyl}-N^1,3-dimethyl-L-valinamide] | 76% | 74 nM | 519 nM | – | – | – | – | 6% |
| CN[C@H](C(=O)N[C@H](C(=O)N(C)[C@H](/C=C(\C)C(=O)N1CCC[C@H]1C(=O)OC)C(C)C)C(C)(C)C)C(C)(C)c1cc(C)cc(C)c1 [Example 19, N,β,β,3,5-Pentamethyl-L-phenylalanyl-N^1-{(1S,2E)-4-[(2S)-2-(methoxycarbonyl)pyrrolidin-1-yl]-1-isopropyl-3-methyl-4-oxobut-2-enyl}-N^1,3-dimethyl-L-valinamide] | 66% | 5.9 nM | 50 nM | 1550 nM | – | – | – | – |
| CN[C@H](C(=O)N[C@H](C(=O)N(C)[C@H](/C=C(\C)C(=O)N1CCC[C@H]1C(=O)O)C(C)C)C(C)(C)C)C(C)(C)c1cc(C)cc(C)c1 [Example 20, N,β,β,3,5-Pentamethyl-L-phenylalanyl-N^1-{(1S,2E)-4-[(2S)-2-carboxypyrrolidin-1-yl]-1-isopropyl-3-methyl-4-oxobut-2-enyl}-N^1,3-dimethyl-L-valinamide] | 80% | 82 nM | 664 nM | – | – | – | – | 3% |
| CN[C@H](C(=O)N[C@H](C(=O)N(C)[C@H](/C=C(\C)C(=O)N1CCC[C@H]1C(=O)OC)C(C)C)C(C)(C)C)C(C)(C)c1cccc(C)c1 [Example 21, N,β,β,3-Tetramethyl-L-phenylalanyl-N^1-{(1S,2E)-4-[(2S)-2-(methoxycarbonyl)pyrrolidin-1-yl]-1-isopropyl-3-methyl-4-oxobut-2-enyl}-N^1,3-dimethyl-L-valinamide] | 89% | 1.6 nM | 6.2 nM | 275 nM | – | – | – | – |
| CN[C@H](C(=O)N[C@H](C(=O)N(C)[C@H](/C=C(\C)C(=O)N1CCC[C@H]1C(=O)O)C(C)C)C(C)(C)C)C(C)(C)c1cccc(C)c1 [Example 22, N,β,β,3-Tetramethyl-L-phenylalanyl-N^1-{(1S,2E)-4-[(2S)-2-carboxypyrrolidin-1-yl]-1-isopropyl-3-methyl-4-oxobut-2-enyl}-N^1,3-dimethyl-L-valinamide] | 95% | 70 nM | 599 nM | – | – | – | – | 12% |
| CN[C@H](C(=O)N[C@H](C(=O)N(C)[C@H](/C=C(\C)C(=O)N1CCC[C@H]1C(=O)OC)C(C)C)C(C)(C)C)C(C)(C)c1cccc(Cl)c1 [Example 23, 3-Chloro-N,β,β-trimethyl-L-phenylalanyl-N^1-{(1S,2E)-4-[(2S)-2-(methoxycarbonyl)pyrrolidin-1-yl]-1-isopropyl-3-methyl-4-oxobut-2-enyl}-N^1,3-dimethyl-L-valinamide] | 88% | 2.5 nM | 6.2 nM | 362 nM | – | – | – | – |
| CN[C@H](C(=O)N[C@H](C(=O)N(C)[C@H](/C=C(\C)C(=O)N1CCC[C@H]1C(=O)O)C(C)C)C(C)(C)C)C(C)(C)c1cccc(Cl)c1 [Example 24, 3-Chloro-N,β,β-trimethyl-L-phenylalanyl-N^1-{(1S,2E)-4-[(2S)-2-carboxypyrrolidin-1yl]-1-isopropyl-3-methyl-4-oxobut-2-enyl}-N^1,3-dimethyl-L-valinamide] | 94% | 62 nM | 180 nM | – | – | – | – | 17% |
| CN[C@H](C(=O)N[C@H](C(=O)N(C)[C@H](/C=C(\C)C(=O)N1CCC[C@H]1[C@H](OC)[C@@H](C)C(=O)NCCc1ccccc1)C(C)C)C(C)(C)C)C(C)(C)c1ccccc1 [Example 31, N-methyl-3-phenyl-L-valyl-N^1— [(1S,2E)-1-isopropyl-4-((2S)-2-{(1R,2R)-1-methoxy-2-methyl-3-oxo-[(2-phenethyl)amino]propyl}pyrrolidin-1-yl)-3-methyl-4-oxobut-2-enyl]-N^1,3-dimethyl-L-valinamide] | 69% | – | – | – | 0.9 nM | 5.1 nM | 191 nM | – |

Reference: patent US7390910B2, “Compounds for treating tumors” (priority 2003, dated 2008)
